Consider 1 compound from paper PMC4669708 (Cell Death & Disease, 2015).

Assay [1] is described as follows: Chemical proteomics, c-ponatinib drug pull-down, LCMS-MS. The format is binding, human. To be noted: c-ponatinib matrix, competition with free ponatinib; cells 2 h TNF-α. Here is the method: Drug-affinity matrices were prepared as described previously.[51] In brief, 25 nmol of c-ponatinib were immobilized on 50 μl NHS-activated Sepharose 4 Fast Flow beads (GE Healthcare Bio-Sciences AB, Uppsala, Sweden). 10 mg whole cell lysate was used as protein input per replicate. Affinity chromatography and elution were performed in duplicate. After elution, the enriched proteins were reduced with dithiothreitol (DTT) and cysteine residues were alkylated by incubation with iodoacetamide. The samples were digested with modified porcine trypsin (Promega). Five percent of the digested eluates were purified and concentrated by C18 reversed-phase material. Subsequently, samples were analyzed in duplicates by gel-free one-dimensional LCMS.
Precursor and MS/MS peaks were extracted from the RAW files and saved in the MGF format using msconvert tool (ProteoWizard Library v2.1.2708, www.proteowizard.sourceforge.net) for subsequent protein identification. […] The initial peptide identifications were used to deduce independent linear transformations for precursor and fragment masses that would minimize the mean square deviation of measured masses from theoretical. […] A false discovery rate of <1% for protein identifications and <0.1% for peptides (including the ones exported with lower scores) was determined by applying the same procedure against a database of reversed protein sequences. […]

In another assay the target is T1, endogenous RIPK3 (Homo sapiens, UniProt Q9Y572).
T1 construct: endogenous in cells; host or cells: FADD-deficient Jurkat I2.1
T1 sequence (Q9Y572 whole entry): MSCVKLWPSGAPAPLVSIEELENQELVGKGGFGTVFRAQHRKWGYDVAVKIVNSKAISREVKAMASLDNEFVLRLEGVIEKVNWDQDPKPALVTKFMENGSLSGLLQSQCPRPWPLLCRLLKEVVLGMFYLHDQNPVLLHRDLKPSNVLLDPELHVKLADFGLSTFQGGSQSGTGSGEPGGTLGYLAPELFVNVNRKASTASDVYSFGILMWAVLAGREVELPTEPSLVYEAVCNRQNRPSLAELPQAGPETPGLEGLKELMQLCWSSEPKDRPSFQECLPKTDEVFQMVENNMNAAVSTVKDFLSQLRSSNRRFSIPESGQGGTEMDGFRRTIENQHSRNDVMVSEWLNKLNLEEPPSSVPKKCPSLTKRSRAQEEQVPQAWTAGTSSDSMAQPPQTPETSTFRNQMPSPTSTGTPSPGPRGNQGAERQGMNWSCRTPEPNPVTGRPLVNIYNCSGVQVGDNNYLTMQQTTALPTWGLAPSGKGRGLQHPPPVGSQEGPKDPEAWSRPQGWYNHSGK
Briefly: Cellular thermal shift assay (CETSA). The format is cell-based. The conditions noted are these: FADD-deficient Jurkat cells, 0.5 μM, 3 h. Here is the method:
Drug target engagement in cells, causing stabilization of the respective protein, was analyzed essentially as described previously.[55] […] After treatment, cells were collected by centrifugation and resuspended in 1x PBS. The cell suspension was aliquoted into PCR tubes and heated for 3 min at 42, 46, 50, 54, 58 or 62 °C. Subsequently, cells were lysed by three consecutive freeze–thaw cycles using liquid nitrogen. The soluble fraction was separated from precipitated proteins by centrifugation at 13000 r.p.m. and 4 °C for 20 min. The supernatant, containing the soluble proteins, was transferred to a fresh tube and analyzed by immunoblotting.

A further assay deals with T2, recombinant RIPK1 (Homo sapiens, UniProt Q13546).
T2 construct: purchased Signalchem R07-10G
T2 sequence (Q13546 1-327 limits assumed): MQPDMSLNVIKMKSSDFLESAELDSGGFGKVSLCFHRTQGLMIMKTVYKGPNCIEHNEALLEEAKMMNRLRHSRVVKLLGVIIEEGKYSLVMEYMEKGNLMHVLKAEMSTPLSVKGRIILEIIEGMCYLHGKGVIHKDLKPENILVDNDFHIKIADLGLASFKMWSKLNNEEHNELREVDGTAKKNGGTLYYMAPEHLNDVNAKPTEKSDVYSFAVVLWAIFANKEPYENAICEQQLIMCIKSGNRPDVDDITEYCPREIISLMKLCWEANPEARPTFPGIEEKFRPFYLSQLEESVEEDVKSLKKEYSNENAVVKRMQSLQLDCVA
In words: Recombinant kinase assay. The format is biochemical. To be noted: 50 μM ATP; Supplementary Figure 4b. Here is the method:
Recombinant RIPK1 or RIPK3 protein was incubated with the substrate MBP in kinase assay buffer (40 mM Tris-HCl pH 7.5, 10 mM MgCl2 and 1 mM DTT) in presence of 50 μM ATP, 5 μCi [γ-32 P]ATP and the indicated inhibitors in a total volume of 20 μl. […] The terminated reactions were spotted onto a SAM2 Biotin Capture membrane (Promega) and further processed according to the manufacturer's instructions. […] Data were normalized to a DMSO-treated control sample. For autoradiography, the reactions were stopped by addition of 5 μl 4x Laemmli buffer and incubated for 5 min at 95 °C.

The test system of assay [2] is FADD-deficient Jurkat cells. Briefly: Drug toxicity, cell viability without TNF-α. To be noted: Homo sapiens, 24 h, no TNF-α, CellTiter Glo. The format is cell-based. Here is the method: Cells were seeded in 12-, 24- or 96-well plates at proper cell density. For necroptosis or apoptosis assays, cells were incubated with the indicated compound combinations at concentrations stated for 14–24 h. Smac mimetic and z-VAD-FMK were added 30–60 min before treatment with TNF-α, FasL or TRAIL. Cell viability was determined using CellTiter Glo Luminescent Cell Viability Assay (Promega, Fitchburg, WI, USA) according to the manufacturer's instructions. Luminescence was recorded with a SpectraMax M5Multimode plate reader (Molecular Devices, Sunnyvale, CA, USA). For flow cytometry-based determination of viability, cells were harvested, collected by centrifugation, washed once and resuspended in staining buffer (1 × PBS, 10% FBS). Cells were incubated with 0.5 μg/ml PI for 10 min at room temperature (RT) in the dark. Flow cytometric analyses were performed on an LSR Fortessa (BD Biosciences) and analyzed with FlowJo software version 7.6.3 (Tree Star Inc, Ashland, OR, USA). Cell size was evaluated by forward scatter. PI-negative normal-sized cells were considered living and data were normalized to values of untreated controls. For detection of apoptosis, cells were resuspended in Annexin V Binding Buffer (BioLegend, San Diego, CA, USA) and stained with 0.5 μg/ml PI and Alexa Fluor 647 Annexin V (BioLegend) according to manufacturer's instructions.

Each structure is given as a SMILES string.

Usually IC50 stands for the point on the concentration scale where inhibition reaches its midpoint. For the compound `Cc1ccc(C(=O)Nc2ccc(CN3CCN(C)CC3)c(C(F)(F)F)c2)cc1C#Cc1cnc2cccnn12` [ponatinib, Ponatinib], in assay [1], the “kinases identified as specific binders (number)” value was determined as 38 and the “non-kinase proteins identified as specific binders (number)” value came out at 22. In addition, the “RIPK3 thermostability (target engagement)” value on endogenous RIPK3 was “led to a shift in the RIPK3 thermostability curve”. Further, the “RIPK1 kinase activity (MBP phosphorylation)” value on recombinant RIPK1 was “strongly blocked phosphorylation”. In addition, the IC50 in assay [2] is 1600 nM.
